Assay results as given in PMC4824452, “Substrate complexes of human dipeptidyl peptidase III reveal the mechanism of enzyme inhibition” (Scientific Reports, 2016).
Positions count from the first letter of the chain named.

Legend:
hDPP III [1] = test system: hDPP III; parameters: method as in 2 sources, ref 22 = [22]; PMID 10822105; doi:10.1016/s0196-9781(00)00174-1; Yamamoto Y. , Hashimoto J. , Shimamura M. , Yamaguchi T. & Hazato T. Characterization of tynorphin, a potent endogenous inhibitor of dipeptidyl peptidaseIII . Peptides 21 , 503 – 508 ( 2000 ). 1082210 ||| ref 1 = [1]; PMID 21794094; doi:10.1111/j.1742-4658.2011.08275.x; Prajapati S. C. & Chauhan S. S. Dipeptidyl peptidase III: a multifaceted oligopeptide N-end cutter . FEBS J. 278 , 3256 – 3276 ( 2011 ). 21794094 10.1111/j.1742-4658.2011.08275.x; settings: cited from earlier work
[2] = molecular target: hDPP3(1-726) E451A, inactive hDPP III variant used for ITC (human) (UniProt Q9NY33); experiment: ITC; 800 μM angiotensin II in the syringe into 40 μM enzyme in the cell; 25 °C; 50 mM Tris-HCl pH 8.0, 100 mM NaCl; one-binding-site model
human DPP III = settings: cited from earlier work
rat DPP III = test system: rat DPP III; parameters: method as in PMID 12895665; settings: cited from earlier work
[3] = molecular target: T1, active smFRET construct of hDPP III (still containing residue Glu-451) (Homo sapiens, UniProt Q9NY33, C19S/C519S/C654S/E207C/S491C); experiment: Fluorometric activity assay, release of β-naphthylamine, active smFRET construct; type: biochemical; settings: active smFRET construct 50 pM; substrate 1 μM to 200 μM; 37 °C, 50 mM Tris-HCl pH 8.0, 100 mM NaCl; fluorescence ex 320 nm, em 420 nm
T1 construct: His6-tag with TEV protease cleavage site (N, cleaved yes); made in house; host or cells: E. coli BL21-CodonPlus (DE3) RIL
T1 sequence (Q9NY33 1-726 C19S/E207C/S491C/C519S/C654S limits assumed): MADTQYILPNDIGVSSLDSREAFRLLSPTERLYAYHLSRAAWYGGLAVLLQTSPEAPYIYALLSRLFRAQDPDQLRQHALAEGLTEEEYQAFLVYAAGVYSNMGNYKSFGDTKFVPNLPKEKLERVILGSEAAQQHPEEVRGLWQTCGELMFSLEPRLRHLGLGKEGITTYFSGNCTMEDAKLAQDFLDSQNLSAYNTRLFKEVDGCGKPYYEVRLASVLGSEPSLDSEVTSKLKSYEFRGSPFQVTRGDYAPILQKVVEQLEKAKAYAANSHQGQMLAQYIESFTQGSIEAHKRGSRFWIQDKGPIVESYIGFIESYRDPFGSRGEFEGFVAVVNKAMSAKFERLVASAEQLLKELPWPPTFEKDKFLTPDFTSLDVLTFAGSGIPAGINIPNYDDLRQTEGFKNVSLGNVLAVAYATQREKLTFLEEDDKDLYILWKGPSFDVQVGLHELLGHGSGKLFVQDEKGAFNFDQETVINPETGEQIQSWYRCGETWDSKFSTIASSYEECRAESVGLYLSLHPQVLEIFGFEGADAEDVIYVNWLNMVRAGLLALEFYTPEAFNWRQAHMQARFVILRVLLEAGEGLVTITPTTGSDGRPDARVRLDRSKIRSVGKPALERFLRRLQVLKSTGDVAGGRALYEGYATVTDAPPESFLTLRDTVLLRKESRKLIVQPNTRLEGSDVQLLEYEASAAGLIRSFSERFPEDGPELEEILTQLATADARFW
Procedure: (§1) The enzymatic activities of the wild-type enzyme and the active smFRET construct (still containing residue Glu-451) were determined using a fluorometric assay, which measures the release of β-naphthylamine upon cleavage of the synthetic substrate Arg-Arg-β-naphthylamide (excitation at 320 nm and emission at 420 nm)[41]. Kinetic parameters were determined at 37 °C in 50mM Tris-HCl buffer pH 8.0, containing 100 mM NaCl. The protein concentrations were 20 pM (wild-type enzyme) and 50 pM (smFRET construct). The substrate concentration was varied from 1 μM to 200 μM. The initial rate of fluorescence increase was monitored continuously for 5 min and was converted into the velocity of the reaction using a calibration curve for β-naphthylamine. Non-linear regression using the program GraphPad Prism (www.graphpad.com) yielded the values for vmax and KM.

[4] = molecular target: T2, hDPP III, wild-type enzyme (Homo sapiens, UniProt Q9NY33); experiment: Fluorometric activity assay, release of β-naphthylamine, wild-type enzyme; type: biochemical; settings: wild-type enzyme 20 pM; substrate 1 μM to 200 μM; 37 °C, 50 mM Tris-HCl pH 8.0, 100 mM NaCl; fluorescence ex 320 nm, em 420 nm
T2 sequence (Q9NY33 1-737): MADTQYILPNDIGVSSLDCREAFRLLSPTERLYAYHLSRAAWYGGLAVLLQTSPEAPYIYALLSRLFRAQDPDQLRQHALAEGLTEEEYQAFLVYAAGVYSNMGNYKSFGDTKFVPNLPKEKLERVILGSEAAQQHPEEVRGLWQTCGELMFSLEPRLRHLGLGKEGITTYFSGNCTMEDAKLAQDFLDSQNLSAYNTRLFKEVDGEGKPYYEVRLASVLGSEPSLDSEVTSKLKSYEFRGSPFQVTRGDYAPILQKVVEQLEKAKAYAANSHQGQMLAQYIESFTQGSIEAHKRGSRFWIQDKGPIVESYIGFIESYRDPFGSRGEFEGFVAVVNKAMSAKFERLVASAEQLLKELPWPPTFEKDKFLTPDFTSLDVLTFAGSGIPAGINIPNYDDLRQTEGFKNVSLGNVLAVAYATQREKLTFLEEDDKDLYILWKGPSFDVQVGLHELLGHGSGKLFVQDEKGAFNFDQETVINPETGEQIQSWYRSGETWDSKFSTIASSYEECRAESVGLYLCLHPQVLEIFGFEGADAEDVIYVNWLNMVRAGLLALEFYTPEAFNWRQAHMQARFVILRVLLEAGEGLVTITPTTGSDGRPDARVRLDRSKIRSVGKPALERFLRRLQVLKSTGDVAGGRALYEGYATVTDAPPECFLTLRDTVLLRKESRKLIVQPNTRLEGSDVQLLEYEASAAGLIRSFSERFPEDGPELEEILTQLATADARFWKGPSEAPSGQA
Procedure: as §1

hDPP III [5] = settings: cited from earlier work
From the text: The octapeptide angiotensin-II (DRVYIHPF) is a potent vasoconstrictor and is involved in regulating mammalian blood pressure.

[6] = test system: partially purified DPP III from monkey brain; parameters: method as in PMID 10822105; settings: cited from earlier work
inactive hDPP3 variant = molecular target: inactive hDPP3 variant; parameters: method as in PMID 22493238; settings: cited from earlier work
[7] = molecular target: T3, human dipeptidyl peptidase III (1-726), inactive E451A variant, smFRET construct (C19S, C519S, C654S, E207C, … (human, UniProt Q9NY33 1-726, E451A | C19 exchanged to serine | C519 exchanged to serine | C654 exchanged to …)); experiment: crystal structure; co-crystallisation; protein 8 mg mL^-1, protein:ligand about 1:30, sitting drop vapour diffusion at 20 °C, microseeding with crystals of the angiotensin II complex; settings: both partners purified
T3 construct: human dipeptidyl peptidase III, residues 1-726 (lacks 11 C-terminal residues), with E451A and five surface exchanges made for smFRET; Vector pET28-MHL; His6-tag removed with TEV protease, so residues of the cleavage site may remain at the N-terminus; also called hDPP III; hDPP3; source: E. coli BL21-CodonPlus (DE3) RIL, purified (Ni-NTA, ResourceQ anion exchange, TEV cleavage, Superdex 200); not …
T3 sequence (looked up): T1 sequence (Q9NY33 1-726 C19S/E207C/S491C/C519S/C654S limits assumed) with E451A

In the case of “YPFF-NH2 [endomorphin-2, opioid peptide with amidated C-terminus]”, the “in vitro substrate of hDPP III (in words)” value (from here on “in vitro substrate”) (hDPP III [1]) is given as “known in vitro substrates of hDPP III”.

Molecule angiotensin-II (peptide) has a Kd [2] of 1.64 µM and a dH [2] of 3.64 kcal/mol.

For IVYPW, the “inhibition of the enzyme (in words)” value (human DPP III) is given as “described as an inhibitor of the enzyme”, the “relative inhibitory strength (in words)” value (rat DPP III; compared with tynorphin, presumably ref 23) is given as “a stronger inhibitor than tynorphin” and the “inhibition (in words)” value (rat DPP III; rat DPP III) is given as “nanomolar affinity”.

With “Arg-Arg-β-naphthylamide [synthetic substrate releasing β-naphthylamine upon cleavage]” the Km [3] was 30 µM, the kcat [3] was 28 s⁻¹ and the Km [4] was 24 µM. It also gave a kcat [4] of 24 s⁻¹.

For “YGGFM [Met-enkephalin, endogenous opioid neurotransmitter (YGGFM)]”, the “cleavage by hDPP III (in words)” value (hDPP III [1]) is given as “shown to be cleaved by hDPP III” and the “in vitro substrate” value (hDPP III [1]) is given as “known in vitro substrates of hDPP III”.

For “VVYPW [tynorphin, synthetic opioid peptide, a derivative of spinorphin]”, the “character of binding (thermodynamic, in words)” value (hDPP III [5]) is given as “endothermic process driven by entropic changes”, the “inhibition of human DPP III (in words)” value (human DPP III) is given as “described as an inhibitor of human DPP III” and the “inhibition (in words)” value [6] is given as “shown to inhibit partially purified DPP III from monkey brain”. For the same molecule, the “period over which the peptide appears to be hydrolysed” value (hDPP III [1]) was “about 24 hours”.

For “YGGFL [Leu-enkephalin, endogenous opioid neurotransmitter (YGGFL)]”, the Kd (inactive hDPP3 variant) is given as 3.6 µM, the “cleavage by hDPP III (in words)” value (hDPP III [1]) is given as “shown to be cleaved by hDPP III” and the “in vitro substrate” value (hDPP III [1]) is given as “known in vitro substrates of hDPP III”.

B1: Met-enkephalin (peptide)
peptide: YGGFM
notes: Met-enkephalin, endogenous opioid pentapeptide cut from proenkephalin-A; also called YGGFM
B1: binds [7].

B2: Leu-enkephalin (peptide)
peptide: YGGFL
notes: Leu-enkephalin, endogenous opioid pentapeptide cut from proenkephalin-A (also held in prodynorphin); also called YGGFL
B2: binds [7].

B3: synthetic opioid peptide IVYPW (peptide)
peptide: IVYPW
notes: synthetic opioid peptide, similar to tynorphin (VVYPW), a derivative of spinorphin
B3: binds [7].
